{"source": "patent US4468469A", "about": "“Substituted phenylacetic acids and salts as TBP blocking agents in iodothyronine immunoassays” (Miles Laboratories, Inc., priority 1982, dated 1984)", "key": {"[1]": {"tested_on": "serum proteins (thyroxine binding protein, TBP)", "assay": "Dissociation of thyroxine from human serum, first experiment (Sephadex LH-20 column, pH 6.5)", "method": "Approximately 3 milliliters (ml) of human serum was allowed to equilibrate with radioactive iodine-labeled thyroxine (^125 I-thyroxine obtained from Amersham-Searle, Arlington Heights, Ill., USA) for about 8 hours.\nThen 100 microliter (μl) aliquots of this serum were combined with 300 μl aliquots of 0.1 molar (M) sodium phosphate buffer, pH 6.5, containing various concentrations of fenclofenac (British Pat. No. 1,308,327; example 6). Then 180 μl aliquots of each of these mixtures were applied to 2 ml columns of Sephadex LH-20 (Pharmacia Fine Chemicals, Piscataway, N.J. USA) equilibrated with 0.1M sodium phosphate buffer, pH 6.5. The radioactivity on the columns was measured and the columns were washed with 5 ml of the buffer. The radioactivity of each column was measured again and the results (shown below in Table 1) used as estimates of thyroxine dissociated from serum proteins."}, "[2]": {"tested_on": "serum proteins (thyroxine binding protein, TBP)", "assay": "Dissociation of thyroxine from human serum, second experiment (Seralute Sephadex column, pH 7.0)", "details": "for release and block the binding of protein-bound iodothyronine: summary of both experiments of Example I; for Percent Dissociated: pH 7.0, 5 min", "method": "Radioactive iodine labeled thyroxine (^125 I-thyroxine obtained from Amersham-Searle, Arlington Heights, IL, USA) was equilibrated with 5 ml of normal human serum for 48 hours at 4° C. […] After 5 minutes of incubation at room temperature, a 165 μl aliquot was applied to a Sephadex® column from a Seralute® thyroxine assay kit (Miles Laboratories, Inc., Ames Division, Elkhart, IN, USA), which had been equilibrated with 0.1M sodium phosphate, pH 7.0. The total radioactivity applied to the columns was measured and the undissociated material was washed through the column with 3 ml of buffer. The columns were counted to determine the percentage of thyroxine dissociated from the serum proteins."}, "[3]": {"assay": "Optical absorption spectra", "format": "physicochemical"}, "apoglucose oxidase": {"target": "apoglucose oxidase (Aspergillus niger, UniProt P13006)", "sequence (P13006 17-605)": "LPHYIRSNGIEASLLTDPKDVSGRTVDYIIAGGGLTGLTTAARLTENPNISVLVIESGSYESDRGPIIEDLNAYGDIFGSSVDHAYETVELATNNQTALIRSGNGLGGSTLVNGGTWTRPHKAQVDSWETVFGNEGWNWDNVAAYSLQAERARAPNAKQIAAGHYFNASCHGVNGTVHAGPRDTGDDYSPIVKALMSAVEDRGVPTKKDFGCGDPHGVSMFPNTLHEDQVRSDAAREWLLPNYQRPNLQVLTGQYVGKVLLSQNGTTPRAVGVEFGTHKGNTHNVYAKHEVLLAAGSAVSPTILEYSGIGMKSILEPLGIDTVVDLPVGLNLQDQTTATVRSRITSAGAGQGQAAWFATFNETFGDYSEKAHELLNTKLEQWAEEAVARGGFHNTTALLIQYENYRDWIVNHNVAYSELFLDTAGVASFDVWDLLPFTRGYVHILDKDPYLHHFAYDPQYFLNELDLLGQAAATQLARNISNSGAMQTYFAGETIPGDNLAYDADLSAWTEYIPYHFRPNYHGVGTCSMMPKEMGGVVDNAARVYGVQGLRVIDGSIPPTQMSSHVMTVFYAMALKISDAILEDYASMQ", "assay": "Activation of apoglucose oxidase by FAD-thyroxine conjugate", "format": "biochemical", "details": "5.5 min, pH 7; for activity at 160 µM: 0.16 mM fenclofenac; for activity at 310 µM: 0.31 mM fenclofenac; for activity at 630 µM: 0.63 mM fenclofenac; for activity at 1250 µM: 1.25 mM fenclofenac; for activity at 2500 µM: 2.5 mM fenclofenac; for activity at 5000 µM: 5.0 mM fenclofenac; for activity at 10000 µM: 10.0 mM fenclofenac", "method": "In a second study, the effect of fenclofenac on the activation of apoglucose oxidase by an FAD-iodothyronine (T-4) conjugate was investigated. The activation of apoglucose oxidase was set up with different concentrations of fenclofenac and performed at 37° C. To two sets of assays containing 96 mM sodium phosphate, pH 7.0, 95 mM glucose, 1.0 mM sodium dichlorohydroxybenzene sulfonate (DHSA), 19 μg/ml peroxidase and various concentrations of sodium fenclofenac were added apoglucose oxidase, 4-aminoantipyrine, and anti(glucose oxidase) at final concentrations of 100 nM, 100 μM, 5 μl/ml respectively or 2.1 nM final concentration of an FAD-thyroxine conjugate. After preincubating the assay media for 5 min at 37° C. the FAD-thyroxine conjugate or the apoglucose oxidase reagent was added to the appropriate assay set. The absorbance at 520 nm was recorded after a 330 second incubation. The data are presented as a percentage of the absorbance recorded when no fenclofenac is present."}, "[4]": {"tested_on": "antiserum to thyroxine / phosphodiesterase", "assay": "Enzyme substrate-labeled immunoassay for thyroxine", "format": "biochemical", "details": "75 μl of 60 mM fenclofenac", "method": "The following reagents were assembled:\nReagent A: 50 mM Bicine buffer with 0.1% sodium azide, pH 8.5\nReagent B: 60 mM fenclofenac in 0.5N sodium hydroxide\nReagent C: thyroxine standards with concentrations of 0, 2, 4, 6, 8, 10, 12, 16 and 20 μg/dl prepared by adding thyroxine (Sigma) to thyroxine free serum.\nReagent D: antibody/enzyme reagent containing 50 μl antiserum per ml and 0.12 units per ml of phosphodiesterase (Sigma, Type VII) in Bicine buffer.\nReagent E: 1.24 μM of the labeled conjugate (Part A above) in 5 mM formate, 0.1% sodium azide buffer, pH 3.5.\nThe assay protocol involved adding 75 μl of Reagent B and 0.5 ml of Reagent A to a cuvette, followed by 75 μl of an appropriate Reagent C and another 0.5 ml of Reagent A, and finally 75 μl of Reagent D and a third 0.5 ml of Reagent A. After a 1 hour incubation at room temperature, the assay reaction was started by adding 75 μl of Reagent E and 0.5 ml of Reagent A to the cuvette. The fluorescence (excitation=360 nm, emission=450 nm) was measured 20 minutes after addition of Reagent E."}, "[5]": {"tested_on": "anti(thyroxine) antiserum / apoglucose oxidase", "assay": "Apoenzyme reactivation immunoassay system for serum thyroxine", "format": "biochemical", "details": "2 mM sodium salt of dissociating agent in buffer", "method": "Standard curves for serum thyroxine were generated using a semiautomated assay protocol on the Gilford Clinical Chemistry Analyzer System 203-S (Gilford Instrument Laboratories, Oberline, OH, USA). […] The FAD-thyroxine conjugate (40 nM in 0.1M sodium phosphate, pH 7.0, 0.01% Triton X-100) as a 0.05 ml aliquot was added to the reaction cup and allowed to equilibrate for 30 seconds. The reaction was initiated by addition of 0.10 ml 1.0 μM apoglucose oxidase, 2 mM 4-aminoantipyrine, 12% glycerol, 80 mM sodium phosphate, pH 7.0. The absorbance at 520 nm was recorded after an 8 minute incubation."}, "[6]": {"details": "read-out: percentage of the absorbance at 520 nm without fenclofenac, Started with Apoenzyme Addition"}, "[7]": {"details": "read-out: percentage of the absorbance at 520 nm without fenclofenac, Started with Conjugate Addition"}}, "note": "“And” between values parts separate entries of the source, which are not always exact repeats. Equal entries are not always repeated. Where two headings read alike, the source gives them in different places."}
{"smiles": "O=C(O)Cc1ccccc1Oc1ccc(Cl)cc1Cl", "note": "[Fenclofenac, 2-(2,4-dichlorophenoxy)phenylacetic acid]", "values": [{"measurement": "Percent Thyroxine Dissociated", "setting": "[1]; 0.25 mM fenclofenac", "result": 50, "unit": "%"}, {"measurement": "Percent Thyroxine Dissociated", "setting": "[1]; 0.50 mM fenclofenac", "result": 72, "unit": "%"}, {"measurement": "Percent Thyroxine Dissociated", "setting": "[1]; 1.0 mM fenclofenac", "result": 79, "unit": "%"}, {"measurement": "Percent Thyroxine Dissociated", "setting": "[1]; 2.0 mM fenclofenac", "result": 98, "unit": "%"}, {"measurement": "Percent Thyroxine Dissociated", "setting": "[1]; 5.0 mM fenclofenac", "result": 100, "unit": "%"}, {"measurement": "release and block the binding of protein-bound iodothyronine", "setting": "[2]; 0.25 mM in immunoassay reaction mixture", "result": "40-50%"}, {"measurement": "release and block the binding of protein-bound iodothyronine", "setting": "[2]; 0.50 mM in immunoassay reaction mixture", "result": "60-70%"}, {"measurement": "Percent Dissociated", "setting": "[2]; dissociating agent 0.25 mM", "result": 40, "unit": "%"}, {"measurement": "Percent Dissociated", "setting": "[2]; dissociating agent 0.50 mM", "result": 61, "unit": "%"}, {"measurement": "Percent Dissociated", "setting": "[2]; dissociating agent 1.00 mM", "result": 71, "unit": "%"}, {"measurement": "Percent Dissociated", "setting": "[2]; dissociating agent 2.00 mM", "result": 75, "unit": "%"}, {"measurement": "Percent Dissociated", "setting": "[2]; dissociating agent 4.00 mM", "result": 79, "unit": "%"}, {"measurement": "Percent Dissociated", "setting": "[2]; dissociating agent 8.00 mM", "result": 81, "unit": "%"}, {"measurement": "optical absorption above 300 nm", "setting": "[3]; 0.5 mM solution in 0.1M sodium phosphate buffer, pH 6.5", "result": "no significant absorption above 300 nanometers"}, {"measurement": "visible color of solution", "setting": "[3]; 50 mM solution in dilute sodium hydroxide", "result": "no visible color"}, {"measurement": "λmax", "setting": "[3]; in 0.1M sodium hydroxide", "result": "275 nanometers and 269 nanometers"}, {"measurement": "λmin", "setting": "[3]; in 0.1M sodium hydroxide", "result": 257, "unit": "nanometers"}, {"measurement": "ε max (NaOH), extinction coefficient", "setting": "[3]; in 0.1M sodium hydroxide, at λmax", "result": "2060 M⁻¹ cm⁻¹ and 2050 M⁻¹ cm⁻¹"}, {"measurement": "ε min (NaOH), extinction coefficient", "setting": "[3]; in 0.1M sodium hydroxide, at λmin", "result": 1520, "unit": "M⁻¹ cm⁻¹"}, {"measurement": "activity at 160 µM", "setting": "apoglucose oxidase; [6]", "result": 100, "unit": "%"}, {"measurement": "activity at 160 µM", "setting": "apoglucose oxidase; [7]", "result": 97, "unit": "%"}, {"measurement": "activity at 310 µM", "setting": "apoglucose oxidase; [6]", "result": 98, "unit": "%"}, {"measurement": "activity at 310 µM", "setting": "apoglucose oxidase; [7]", "result": 92, "unit": "%"}, {"measurement": "activity at 630 µM", "setting": "apoglucose oxidase; [6]", "result": 97, "unit": "%"}, {"measurement": "activity at 630 µM", "setting": "apoglucose oxidase; [7]", "result": 94, "unit": "%"}, {"measurement": "activity at 1250 µM", "setting": "apoglucose oxidase; [6]", "result": 93, "unit": "%"}, {"measurement": "activity at 1250 µM", "setting": "apoglucose oxidase; [7]", "result": 95, "unit": "%"}, {"measurement": "activity at 2500 µM", "setting": "apoglucose oxidase; [6]", "result": 90, "unit": "%"}, {"measurement": "activity at 2500 µM", "setting": "apoglucose oxidase; [7]", "result": 85, "unit": "%"}, {"measurement": "activity at 5000 µM", "setting": "apoglucose oxidase; [6]", "result": 78, "unit": "%"}, {"measurement": "activity at 5000 µM", "setting": "apoglucose oxidase; [7]", "result": 74, "unit": "%"}, {"measurement": "activity at 10000 µM", "setting": "apoglucose oxidase; [6]", "result": 53, "unit": "%"}, {"measurement": "activity at 10000 µM", "setting": "apoglucose oxidase; [7]", "result": 54, "unit": "%"}, {"measurement": "inhibition at 2000 µM", "setting": "apoglucose oxidase; about 2 mM fenclofenac, FAD-thyroxine conjugate, read-out: colorimetric response diminished", "result": "8 to 10", "unit": "%"}, {"measurement": "fluorescence units", "setting": "[4]; thyroxine standard 0 μg/dl, excitation 360 nm, emission 450 nm", "result": 24.9, "unit": "fluorescence units"}, {"measurement": "fluorescence units", "setting": "[4]; thyroxine standard 2 μg/dl", "result": 25.5, "unit": "fluorescence units"}, {"measurement": "fluorescence units", "setting": "[4]; thyroxine standard 4 μg/dl", "result": 26.4, "unit": "fluorescence units"}, {"measurement": "fluorescence units", "setting": "[4]; thyroxine standard 6 μg/dl", "result": 27.2, "unit": "fluorescence units"}, {"measurement": "fluorescence units", "setting": "[4]; thyroxine standard 8 μg/dl", "result": 26.7, "unit": "fluorescence units"}, {"measurement": "fluorescence units", "setting": "[4]; thyroxine standard 10 μg/dl", "result": 27.1, "unit": "fluorescence units"}, {"measurement": "fluorescence units", "setting": "[4]; thyroxine standard 12 μg/dl", "result": 30.0, "unit": "fluorescence units"}, {"measurement": "fluorescence units", "setting": "[4]; thyroxine standard 16 μg/dl", "result": 30.1, "unit": "fluorescence units"}, {"measurement": "fluorescence units", "setting": "[4]; thyroxine standard 20 μg/dl", "result": 30.8, "unit": "fluorescence units"}, {"measurement": "Absorbance (520 nm)", "setting": "[5]; Thyroxine Standard 0 μg/L", "result": 0.797}, {"measurement": "Absorbance (520 nm)", "setting": "[5]; Thyroxine Standard 25 μg/L", "result": 0.823}, {"measurement": "Absorbance (520 nm)", "setting": "[5]; Thyroxine Standard 75 μg/L", "result": 0.893}, {"measurement": "Absorbance (520 nm)", "setting": "[5]; Thyroxine Standard 125 μg/L", "result": 0.965}, {"measurement": "Absorbance (520 nm)", "setting": "[5]; Thyroxine Standard 200 μg/L", "result": 1.078}]}
